The source of these data is US5902726A, “Activators of the nuclear orphan receptor peroxisome proliferator-activated receptor gamma” (priority 1998, dated 1999).

Where two headings read alike, the source gives them in different places.

Data set [1] concerns the target T1, GAL4-PPARγ chimera (ligand-binding domain of the murine PPARγ) (Mus musculus, UniProt P37238).
T1 construct: transient in CV-1 cells with UAS-tk-SPAP reporter
T1 sequence (P37238 204-505): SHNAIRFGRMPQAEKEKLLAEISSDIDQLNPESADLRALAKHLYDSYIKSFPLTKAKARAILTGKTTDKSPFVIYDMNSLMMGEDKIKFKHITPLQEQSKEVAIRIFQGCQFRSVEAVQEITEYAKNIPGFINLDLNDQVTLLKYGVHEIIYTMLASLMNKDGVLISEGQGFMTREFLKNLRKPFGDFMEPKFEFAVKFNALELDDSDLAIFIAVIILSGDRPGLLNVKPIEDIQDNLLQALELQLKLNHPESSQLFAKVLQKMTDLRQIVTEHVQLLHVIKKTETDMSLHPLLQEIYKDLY
Description: Transient cotransfection assay: SPAP reporter. In kind it is cell-based. To be noted: for fold induction at 10 µM: read-out: Fold Activation. From the text:
A transient cotransfection assay was used to screen for activators of PPARγ. As mammalian cell lines contain endogenous nuclear receptors that can complicate interpretation of the results, we used an established chimera system in which the ligand-binding domain of the murine PPARγ was fused to the DNA binding domain of the yeast transcription factor GAL4. The GAL4-PPARγ chimera was cotransfected into CV-1 cells with a reporter construct containing five copies of the GAL4 binding site upstream of the thymidine kinase promoter driving secreted placental alkaline phosphatase (SPAP) as reporter.
GAL4-PPAR chimeras and UAS-tk-CAT/SPAP reporters.
CV-1 cells were plated in DME medium supplemented with 10% delipidated fetal calf serum at a density of 2.4×10^4 cells per well in a 96-well plate (Costar) 16-24 h before transfection. In general, 8.0 ng of reporter plasmid, 25.0 ng of β-galactosidase expression vector (pCH110, Pharamacia), and 2.0 ng of GAL4-PPARγ expression vector were mixed with carrier DNA (pBluescript, Stratagene) to a total of 80 ng of DNA per well in a volume of 10 μl optiME medium (GIBCO BRL). To this, a second mix, containing 9.3 μl optiME medium and 0.7 μl of LIPOFECTAMINE™ (GIBCO BRL), was added. After 30 min. an additional 80 μl of optiME medium were added and the combined mix was then applied to the cells.

For data set [2], the target named is T2, GST-PPARγ LBD (Mus musculus, UniProt P37238).
T2 construct: cDNA encoding amino acids 174 to 475 of PPARg1; made in house; host or cells: E. coli BL21 (DE3)plysS, crude bacterial extract
T2 sequence (P37238 174-475 isoform P37238-2): T1 sequence (P37238 204-505)
As to the kind of experiment: Saturation binding of radiolabeled ligand to GST-PPARγ LBD. On the set-up: species or system murine. To be noted: for non-specific binding: 500-fold excess of nontritiated compound. Here is the method: (§1) To test for direct interactions between thiazolidinediones and PPARγ,the ligand binding domain of PPARγ was expressed in E. Coli as a fusion protein with glutathionine-S-transferase (GST-PPARγ LBD).
Bound was separated from free radioactivity by elution through 1 ml Sephadex G-25 desalting columns (Boehringer Mannheim). Bound radioactivity eluted in the column void volume and was quantitated by liquid scintillation counting.

The test system of data set [3] is glutathione-S-transferase. As to the kind of experiment: Binding control in extracts from bacteria expressing glutathione-S-transferase. To be noted: extracts from bacteria expressing glutathione-S-transferase alone.
From the text: as §1

The subject of data set [4] is enhancer/promoter of the lipid-binding protein aP2. To be noted: Harris and Kletzien, 1994; cited from earlier work.
Data set [5] relates to pre-adipocyte cell lines. To be noted: cited from earlier work.
Setting [6] is: CV-1 cells, SPAP reporter, test compound at 10^-5 M, 24 h.

As to `CC1(C)CCC(C)(C)c2cc3ncc(-c4ccccc4C(=O)O)cc3cc21` [2-(6,6,9,9-tetramethyl-6,7,8,9-tterahydro-benzo[g]quinolin-3-yl)-benzoic acid], in data set [1] (setting [6]), the fold induction at 10 µM came to 25.9. Still for that read-out and setting: the same measure for `CCCCc1nc(Cl)c(C(=O)NCC(=O)OCC)n1Cc1ccc2oc(-c3ccccc3C(=O)O)c(Br)c2c1` [2-[3-Bromo-5-(2-butyl-4-chloro-5-ethoxycarbonylmethylcarbamoyl-imidazol-1-ylmethyl)-benzofuran-2-yl]-benzoic acid]: 23.9; for `O=C1NC(=O)C(Cc2ccc3c(c2)CCC(Cc2ccccc2)O3)S1` (stereo not drawn) [5-(2-Benzyl-chroman-6-ylmethyl)-thiazolidine-2,4-dione]: 18.2. Same read-out and setting: the same measure for `CC1(COc2ccc(CC3SC(=O)NC3=O)cc2)CCCCC1` (stereo not drawn) [5-[4-(1-methyl-cyclohexylmethoxy)-benzyl)-thiazolidine-2,4-dione]: 46.1.

Regarding `CCCCCC(O)C=CC1C(O)CC2CC(=CCCCC(=O)O)CC21` (stereo not drawn) [5-[5-Hydroxy-4-(3-hydroxy-oct-1-enyl)-hexahydro-pentalen-2-ylidene]-pentanoic acid], in data set [1] (CV-1, 24 h), the fold induction at 10 µM worked out at 19.6.

For the molecule `CN(CCOc1ccc(CC2SC(=O)NC2=O)cc1)c1ccccn1` (stereo not drawn) [5-{4-[2-(Methyl-pyridine-2-yl-amino)-ethoxy]-benzyl}-thiazolidine-2,4-dione], the Specific binding in data set [2] (at 100 nM tritiated ligand) was 13,500 dpm; in data set [2] (at 200 nM tritiated ligand), 14,500 dpm. Besides, the values for the non-specific binding in data set [2] (at 100 nM tritiated ligand) and in data set [2] (at 200 nM tritiated ligand) were 1,700 dpm and 1,900 dpm, respectively. The Binding entry in data set [3] is reported as “No binding was detected”. As to `CCCCCC(O)C=CC1C(=O)CC(O)C1CC=CCCCC(=O)O` (stereo not drawn) [7-[5-Hydroxy-2-(3-hydroxy-oct-1-enyl)-3-oxo-cyclopentyl]-hept-5-enoic acid], in data set [1] (setting [6]), the fold induction at 10 µM turned out to be 23.8.

Take `CCCCCC(=O)C=CC1C(O)CC(=O)C1CCCCCCC(=O)O` (stereo not drawn) [7-[43-Hydroxy-5-oxo-2-(3-oxo-oct-1-enyl)-cyclopentyl]-heptanoic acid]: the “Fold Activation” value in data set [1] (CV-1 cells, SPAP reporter, test compound at 10^-5 M, 24 h, 10 µM) came out at 25.6. For the molecule `CCCCCC(C)c1ccc(C2=CCCC2CCCCCCC(=O)O)cc1` (stereo not drawn) [7-{2-[4-(1-Methyl-hexyl)-phenyl]-cyclopent-2-enyl}-heptanoic acid], in data set [1] (setting [6]), the fold induction at 10 µM amounted to 27. `O=C(O)CCCCCCC1=C(c2ccc(C(O)C3CCCC3)cc2)CCC1=O` (stereo not drawn) [7-{2-[4-(Cyclopentyl-hydroxy-methyl)-phenyl]-5-oxo-cyclopent-1-enyl}-heptanoic acid]: the fold induction at 10 µM in data set [1] (setting [6]) was found to be 24.6.

As to `CC(C)Oc1cc(CCCCC(=O)O)c(C=CC(=O)CCCCCC(=O)O)c(OC(C)C)c1` [9-[2-(4-Carboxy-butyl)-4,6-diisopropoxy-phenyl]-7-oxo-non-8-enoic acid], in data set [1] (setting [6]), the fold induction at 10 µM was 11.3. Take `CCCc1c(-c2ccccc2)[nH]c2ccc(CC(=O)O)cc12` [(2-Phenyl-3-propyl-1H-indol-5-yl)-acetic acid]: the fold induction at 10 µM in data set [1] (setting [6]) was 21.7. The same measure, in the same setting: the same measure for `O=C(O)Cc1ccc2[nH]c(-c3ccccc3)c(CCc3ccccc3)c2c1` [(3-phenethyl-2-phenyl-1H-indol-5-yl)-acetic acid]: 21.2; for `CN(C)c1ccc(Cc2ccc(N(C)C)cc2CC(=O)O)cc1` [[5-Dimethylamino-2-(4-dimethylamino-benzyl)-phenyl]-acetic acid]: 17.8. For `CCc1ccc(CCOc2ccc(CC3SC(=O)NC3=O)cc2)nc1` (stereo not drawn) [pioglitazone], in data set [4], the “Expression of chimeric aP2 enhancer/promoter CAT reporter gene” value is “stimulate expression”. In addition, the “Expression of adipocyte-specific genes aP2 and adipsin and glucose transporter proteins GLUT-1 and GLUT-4” value in data set [5] is reported as “increased expression”.

In the case of `Cc1cccc(Nc2cc(Cl)nc(SCC(=O)O)n2)c1C` [{4-Chloro-6-(2,3-dimethyl-phenylamino)-pyrimidin-2-ylsulfanyl}-acetic acid], in data set [1] (setting [6]), the fold induction at 10 µM was 25.7.
